One molecule from patent publication US8173863B2, “Sucrose biosensors and methods of using the same” (Carnegie Institution of Washington, priority 2005, dated 2012) can be followed below.

Experiment [1] deals with Agrobacterium tumefaciens ThuE (AtThuE) sucrose binding protein carrying N192D (SEQ ID NO: 2) fused between ECFP and EYFP, sensor FLIPsuc4μ (FLIPsuc), wt (indicator SEQ ID NO: 4) (Agrobacterium fabrum, UniProt A9CF11, N212D). The experiment can be described thus: in vitro FRET titration of purified sensor FLIPsuc4μ. An excerpt: (§1) Because the maltose/trehalose/sucrose binding protein from Agrobacterium tumefaciens (AtThuE) is 78.9% identical over predicted mature region of the SmThuE protein (SEQ ID NO: 2) and is 21.4% homologous to the maltose binding protein from E. coli (malE), we attempted to clone the AtThuE binding protein. To isolate the gene, a PCR product from genomic Agrobacterium tumefaciens (strain C58C1) DNA encoding mature AtThuE without signal sequence and stop codon was cloned into the KpnI site between ECFP and EYFP genes (FIG. 1A). The chimeric gene was inserted into pRSET (Invitrogen) and transferred to E. coli BL21(DE3)Gold (Stratagene). […] It is unknown whether this difference corresponds to a mutation or natural variation. Since N192D was outside the binding pocket and since AtThuE carrying the mutation was functional as a sugar sensor (see Table 1), all further experiments were carried out with the nanosensor named FLIPsuc4μ carrying the mutation N192D. FLIPsuc proteins were extracted from BL21(DE3)gold and purified as described (Fehr et al. 2002).
(§2) A DNA fragment encoding the mature Agrobacterium tumefaciens maltose/trehalose/sucrose BP protein was fused between the ECFP and EYFP sequences as described above. The chimeric gene was expressed in E. coli and the protein product purified and assayed for substrate specificity.
(§3) Substrate titration curves and substrate specificity analysis were performed on Safire (Tecan) fluorometer. ECFP was excited at 433 nm and emission was set to 485 nm and 528 nm for ECFP and EYFP, respectively (bandwidth 12 nm). All in vitro analyses were performed in 20 mM MOPS buffer at pH 7. FRET was determined as EYFP-ECFP emission intensity ratio. Using the change in ratio upon ligand binding, binding constants (Kd) were determined by fitting substrate titration curves to equation 1: S=1−(r−rmin)(rmax−rmin)=[S]b/[P]t=n[S]/(Kd+[S]), where [S] is substrate concentration; [S]b, concentration of bound substrate; n, number of binding sites; [P]t, total concentration of binding protein; r, ratio; rmin, minimum ratio in absence of ligand; rmax, maximum ratio at saturation. Hill coefficients were determined using Hill equation 2: S=(n[S]^n)/(Kd+[S]^n).
(§4) SmThuE is mainly functioning as a trehalose and maltose binding protein. Sucrose is thought to be transported to a lesser extent. FLIPsuc4μ was therefore incubated with trehalose, maltose and other related sugars to test for its binding capacities. Substrate-induced conformational changes were measured using FRET in micro plate assays. […] Maltose and glucose were chosen for further analysis of FLIPsuc4μ and its mutants since they are important sugars in plants and might therefore interfere with sucrose measurements in vivo. […] Most mutants show similar patterns with higher affinity for maltose than sucrose. FLIPsuc-10μ is the most significant example with an 83 times higher affinity for maltose than sucrose (Table 1). The D115 mutants both show the highest affinity for maltose compared to sucrose and […], but to a different extent.

The target in experiment [2] is Agrobacterium tumefaciens ThuE (AtThuE) sucrose binding protein carrying N192D (SEQ ID NO: 2) fused between ECFP and EYFP, sensor FLIPsuc4μ (FLIPsuc), wt (indic (Agrobacterium fabrum, UniProt A9CF11, N212D)). The experiment is described as above.
Description: as §1, §2, §3, §4

The target of experiment [3] is Agrobacterium tumefaciens AtThuE sensor FLIPsuc4μ variant Y246A (FLIPsuc15m, FLIPsucY246A) (Agrobacterium fabrum, UniProt A9CF11, N212D/Y266A). The experiment is described as follows: in vitro FRET titration of affinity mutant FLIPsuc15m. In kind it is binding. How it is done:
as §3
(§5) To expand the dynamic range of the sucrose sensor, site directed mutagenesis was used as described above to lower the binding affinity of the sucrose binding domain. Affinity mutants of FLIPsuc4μ were generated. Alignment together with modeling of AtThuE with maltose binding proteins that have been crystallized helped predict residues important for ligand binding. […] Mutant forms carrying substitutions F113A, D115A, D115E, D115N, W244A, Y246A and W283A were generated using Kunkel mutagenesis (Kunkel et al. 1991) in the mutant background of FLIPsuc41t. The affinity mutants were designated as FLIPsucF113A, FLIPsucW283A, FLIPsucD115A, FLIPsucD115E, FLIPsucY246A, and FLIPsucW244A. All six mutants have lower affinities for sucrose than that of FLIPsuc4μ, with a Kd value varying from 10 μM to the higher mM range (Table 1). The starting ratio between EYFP and ECFP ranges from 1.4 to close to 2.0, which is also similar to what has been seen in other sugar sensors (FLIPmal, FLIPglu and FLIPrib). Introducing substitution F113A into the ThuE moiety of FLIPsuc4μ produced FLIPsuc10μ, which has a binding constant (Kd) of 10 μM for sucrose, thus providing a range for sucrose quantification between at least 1 μM and 90 μM (Table 1).

For experiment [4], the target named is Agrobacterium tumefaciens AtThuE sensor FLIPsuc4μ variant W283A (FLIPsuc88μ, FLIPsucW283A) (Agrobacterium fabrum, UniProt A9CF11, N212D/W303A). The experiment is described as follows: in vitro FRET titration of affinity mutant FLIPsuc88μ. In kind it is binding. On the procedure: as §3, §5
Experiment [5] deals with Agrobacterium tumefaciens AtThuE sensor FLIPsuc4μ variant F113A (FLIPsuc10μ, FLIPsucF113A) (Agrobacterium fabrum, UniProt A9CF11, F133A/N212D). The experiment can be described thus: in vitro FRET titration of affinity mutant FLIPsuc10μ. In kind it is binding. As to conditions: for Δratio (change in ratio): in vitro, no binding to saturated binding. How it is done:
as §3, §5

The target of experiment [6] is Agrobacterium tumefaciens AtThuE sensor FLIPsuc4μ variant D115N (Agrobacterium fabrum, UniProt A9CF11, D135N/N212D). The experiment is described as follows: FRET ratio change of D115N mutant. It counts as binding. How it is done:
as §3
To expand the dynamic range of the sucrose sensor, site directed mutagenesis was used as described above to lower the binding affinity of the sucrose binding domain. Affinity mutants of FLIPsuc4μ were generated. Alignment together with modeling of AtThuE with maltose binding proteins that have been crystallized helped predict residues important for ligand binding. […]

Experiment [7] concerns the target Agrobacterium tumefaciens AtThuE sensor FLIPsuc4μ variant D115E (FLIPsuc3m, FLIPsucD115E) (Agrobacterium fabrum, UniProt A9CF11, D135E/N212D). The experiment is described as follows: in vitro FRET titration of affinity mutant FLIPsuc3m. It counts as binding. As to conditions: for Δratio (delta ratio): no binding to saturated binding. How it is done:
as §3, §5

The target in experiment [8] is Agrobacterium tumefaciens AtThuE sensor FLIPsuc4μ variant W244A (FLIPsuc46m, FLIPsucW244A) (Agrobacterium fabrum, UniProt A9CF11, N212D/W264A). The experiment is described as follows: in vitro FRET titration of affinity mutant FLIPsuc46m. In kind it is binding. How it is done: as §3, §5
Experiment [9] addresses Agrobacterium tumefaciens AtThuE sensor FLIPsuc4μ variant D115A (FLIPsuc1m, FLIPsucD115A) (Agrobacterium fabrum, UniProt A9CF11, D135A/N212D). The experiment can be described thus: in vitro FRET titration of affinity mutant FLIPsuc1m. It counts as binding. As to conditions: for Δratio (delta ratio): no binding to saturated binding. On the procedure:
as §3, §5

Experiment [10] concerns the target Agrobacterium tumefaciens AtThuE sensor FLIPsucW283A with linker shortened by 18 amino acids (FLIPsucW283A-18AA, FLIPThuEW283A-18AA) (Agrobacterium fabrum, UniProt A9CF11, N212D/W303A). The experiment can be described thus: FRET ratio change of short-linker sensor FLIPsucW283A-18AA. It counts as binding. The note with it: FIG. 3. How it is done:
as §3
In an attempt to improve the delta ratio of the sucrose sensor the sensor containing the W283A mutation was cloned into a construct with a shorter linker sequence between the GFP variants and the binding protein. Deuschle et al. (2005) has shown that the length of the linker sequence plays a major role in the maximum change in ratio. A construct corresponding to FLIPglu600μΔ5 was constructed which gives a sucrose sensor whose linker was shortened by 18 amino acids (FLIPsucW283A-18AA). […]

[11] abbreviates: in vitro, no binding to saturated binding.
Setting [12] is: 20 mM MOPS pH 7, FRET titration.

As for `OC[C@H]1O[C@@](CO)(O[C@H]2O[C@H](CO)[C@@H](O)[C@H](O)[C@H]2O)[C@@H](O)[C@@H]1O` [sucrose], the equilibrium dissociation constant (Kd) in experiment [1] worked out at 0.0037 mM; in [3] it was 14.6 mM; in experiment [4] (Kd, in vitro, 20 mM MOPS pH 7, FRET titration), 0.088 mM; in experiment [5], 0.01 mM; in experiment [7] (setting [12]) it was 2.87 mM; in [7] (FRET titration), 2.9 mM. Moreover, the Kd in experiment [8] was 46.2 mM; in [9] (setting [12]), 1.35 mM; in experiment [9] (FRET titration), 1.4 mM. The “change in FRET on titration” value in experiment [2] (concentration-dependent, FIG. 1B) is on record as “concentration-dependent decrease in FRET”. The “Δratio (maximum ratio change)” value in experiment [2] (in vitro, no binding to saturated binding, listed as Sucrose) is given as 0.18. The molecule also registered a Hill coefficient in experiment [2] (sucrose titration, pH 7) of 1.04. Further, the Δratio is 0.14 in experiment [3] (setting [11]), 0.29 in experiment [4] (setting [11]) and 0.4 in [8] (setting [11]). In experiment [4] (ratio of Kd), the “affinity for sucrose relative to maltose” value is “three times higher than for maltose”. The “Δratio (change in ratio)” value is recorded as 0.1-0.15 in [5] and 0.12 in experiment [5] (listed as Sucrose). Further, the “change in ratio upon addition of sucrose” value in experiment [6] is listed as “no longer seen”. The “Δratio (delta ratio)” value in experiment [7] is given as ~0.4; in experiment [7] (listed as Sucrose), 0.36; in experiment [9], “at least 0.6”; in [9] (listed as Sucrose), 0.68. For the same molecule, in [10], the “ratio change relative to original construct (FLIPsucW283A)” value was found to be 3 fold.
